Laboratory results published in patent US12331040B2 (Karyopharm Therapeutics Inc., priority 2013, dated 2025).
Like-named read-outs stand apart in the source and are kept apart here.

Legend:
Experiment in all cases: MTT cell proliferation assay
Assay type in all cases: cell-based
3T3 cells = settings: Mus musculus, NIH3T3, approximately 64-72 hours incubation
Summary of the method: (§1)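 Cytotoxicity was measured by MTT: OD490 of the solubilized formazan after roughly 4 h with MTT reagent, reported as mean percent inhibition relative to the negative control. Test compounds covered eight concentrations between 1 nM and 30 μM, added to 5,000–10,000 cells per well that had attached overnight.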

MS751 cells = settings: Homo sapiens, MS751, MS751 cells, approximately 64-72 hours incubation
Summary of the method: as §1

Z138 cells = settings: Homo sapiens, Z-138, Z138 cells, approximately 64-72 hours incubation
Summary of the method: as §1

[1] = read-out: MTT Assay IC50 MS-751
[2] = read-out: MTT Assay IC50, MS-751
[3] = read-out: MTT Assay IC50, Z-138

Nc1ccc(/C=C/C(=O)NCc2cc3cc(-c4ccc(C(=O)N5CCOCC5)c(F)c4)cc(Cl)c3o2)cn1 [Compound 549, (E)-3-(6-aminopyridin-3-yl)-N-((7-chloro-5-(3-fluoro-4-(morpholine-4-carbonyl)phenyl)benzofuran-2-yl)methyl)acrylamide]
IC50 (3T3 cells; read-out: MTT Assay IC50 3T3): > 10 µM | IC50 (MS751 cells; [1]): 0.1 to 5 µM | IC50 (Z138 cells; read-out: MTT Assay IC50 Z-138): 0.1 to 5 µM

Nc1ccc(/C=C/C(=O)NCc2cc3cc(-c4ccc(C(=O)N5CCC(F)(F)CC5)cn4)cc(-c4cc5ccccc5o4)c3o2)cn1 [Compound 668, (E)-3-(6-aminopyridin-3-yl)-N-((5′-(5-(4,4-difluoropiperidine-1-carbonyl)pyridin-2-yl)-2,7′-bibenzofuran-2′-yl)methyl)acrylamide]
IC50 (3T3 cells; read-out: MTT Assay IC50, 3T3): 0.1 to 5 µM | IC50 (MS751 cells; [2]): < 0.1 µM | IC50 (Z138 cells; [3]): < 0.1 µM

Nc1ccc(/C=C/C(=O)NCc2cc3cc(-c4ccc(Oc5ccc(F)cc5)cc4)cc(-c4ccc(F)cc4)c3o2)cn1 [Compound 701, (E)-3-(6-aminopyridin-3-yl)-N-((5-(4-(4-fluorophenoxy)phenyl)-7-(4-fluorophenyl)benzofuran-2-yl)methyl)acrylamide]
IC50 (3T3 cells; read-out: MTT Assay IC50, 3T3): > 10 µM | IC50 (MS751 cells; [2]): 0.1 to 5 µM | IC50 (Z138 cells; [3]): 0.1 to 5 µM

Nc1ccc(/C=C/C(=O)NCc2cc3cc(-c4ccc(F)c(C(=O)N5CCOCC5)n4)cc(Cl)c3o2)cn1 [Compound 581, (E)-3-(6-aminopyridin-3-yl)-N-((7-chloro-5-(5-fluoro-6-(morpholine-4-carbonyl)pyridin-2-yl)benzofuran-2-yl)methyl)acrylamide]
IC50 (3T3 cells; read-out: MTT Assay IC50 3T3): > 10 µM | IC50 (MS751 cells; [1]): < 0.1 µM | IC50 (Z138 cells; read-out: MTT Assay IC50 Z-138): < 0.1 µM

Nc1ccc(/C=C/C(=O)NCc2cc3cc(-c4cccc(OC(=O)N5CCOCC5)c4)cc(C(F)(F)F)c3o2)cn1 [Compound 558, (E)-3-(2-((3-(6-aminopyridin-3-yl)acrylamido)methyl)-7-(trifluoromethyl)benzofuran-5-yl)phenyl morpholine-4-carboxylate]
IC50 (3T3 cells; read-out: MTT Assay IC50 3T3): > 10 µM | IC50 (MS751 cells; [1]): > 10 µM | IC50 (Z138 cells; read-out: MTT Assay IC50 Z-138): > 10 µM

Nc1ccc(/C=C/C(=O)NCc2cc3cc(-c4ccc(C(=O)N5CCC(F)(F)CC5)cc4)cc(-c4ccccn4)c3o2)cn1 [Compound 746, (E)-3-(6-aminopyridin-3-yl)-N-((5-(4-(4,4-difluoropiperidine-1-carbonyl)phenyl)-7-(pyridin-2-yl)benzofuran-2-yl)methyl)acrylamide]
IC50 (3T3 cells; read-out: MTT Assay IC50, 3T3): 0.1 to 5 µM | IC50 (MS751 cells; [2]): < 0.1 µM | IC50 (Z138 cells; [3]): < 0.1 µM

Nc1ccc(/C=C/C(=O)NCc2cc3cc(-c4ccc(C(=O)N5CCCNCC5)cc4)cc(C(F)(F)F)c3o2)cn1 [Compound 573, (E)-N-((5-(4-(1,4-diazepane-1-carbonyl)phenyl)-7-(trifluoromethyl)benzofuran-2-yl)methyl)-3-(6-aminopyridin-3-yl)acrylamide]
IC50 (3T3 cells; read-out: MTT Assay IC50 3T3): > 10 µM | IC50 (MS751 cells; [1]): < 0.1 µM | IC50 (Z138 cells; read-out: MTT Assay IC50 Z-138): < 0.1 µM

COc1cc(-c2ncc(C(=O)N3CCOCC3)cn2)cc2cc(CNC(=O)/C=C/c3ccc(N)nc3)oc12 [Compound 638, (E)-3-(6-aminopyridin-3-yl)-N-((7-methoxy-5-(5-(morpholine-4-carbonyl)pyrimidin-2-yl)benzofuran-2-yl)methyl)acrylamide]
IC50 (3T3 cells; read-out: MTT Assay IC50 3T3): > 10 µM | IC50 (MS751 cells; [1]): 0.1 to 5 µM | IC50 (Z138 cells; read-out: MTT Assay IC50 Z-138): < 0.1 µM

Nc1ccc(/C=C/C(=O)NCc2cc3cc(-c4ccc(C(=O)N5CC6CCC(C5)O6)cn4)cc(C(F)(F)F)c3o2)cn1 [Compound 632, (E)-N-((5-(5-(8-oxa-3-azabicyclo[3.2.1]octane-3-carbonyl)pyridin-2-yl)-7-(trifluoromethyl)benzofuran-2-yl)methyl)-3-(6-aminopyridin-3-yl)acrylamide]
IC50 (3T3 cells; read-out: MTT Assay IC50 3T3): > 10 µM | IC50 (MS751 cells; [1]): 0.1 to 5 µM | IC50 (Z138 cells; read-out: MTT Assay IC50 Z-138): 0.1 to 5 µM

Nc1ccc(/C=C/C(=O)NCc2cc3cc(-c4ccc(C(=O)N5CCC(F)(F)C5)cn4)cc(C(F)(F)F)c3o2)cn1 [Compound 612, (E)-3-(6-aminopyridin-3-yl)-N-((5-(5-(3,3-difluoropyrrolidine-1-carbonyl)pyridin-2-yl)-7-(trifluoromethyl)benzofuran-2-yl)methyl)acrylamide]
IC50 (3T3 cells; read-out: MTT Assay IC50 3T3): > 10 µM | IC50 (MS751 cells; [1]): 0.1 to 5 µM | IC50 (Z138 cells; read-out: MTT Assay IC50 Z-138): < 0.1 µM

CC1(F)CN(C(=O)c2ccc(-c3cc(C(F)(F)F)c4oc(CNC(=O)/C=C/c5ccc(N)nc5)cc4c3)cc2)C1 [Compound 587, (E)-3-(6-aminopyridin-3-yl)-N-((5-(4-(3-fluoro-3-methylazetidine-1-carbonyl)phenyl)-7-(trifluoromethyl)benzofuran-2-yl)methyl)acrylamide]
IC50 (3T3 cells; read-out: MTT Assay IC50 3T3): > 10 µM | IC50 (MS751 cells; [1]): 0.1 to 5 µM | IC50 (Z138 cells; read-out: MTT Assay IC50 Z-138): 0.1 to 5 µM

Nc1ccc(/C=C/C(=O)NCc2cc3cc(-c4ccc(C(=O)N5CCC(F)(F)CC5)cc4)cc(-c4cc5ccccc5o4)c3o2)cn1 [Compound 699]
IC50 (3T3 cells; read-out: MTT Assay IC50, 3T3): 5 to 10 µM | IC50 (MS751 cells; [2]): < 0.1 µM | IC50 (Z138 cells; [3]): < 0.1 µM

CS(=O)(=O)c1ccc(-c2cc(-c3ccc(F)cc3)c3oc(CNC(=O)/C=C/c4ccc(N)nc4)cc3c2)cc1 [Compound 693, (E)-3-(6-aminopyridin-3-yl)-N-((7-(4-fluorophenyl)-5-(4-(methylsulfonyl)phenyl)benzofuran-2-yl)methyl)acrylamide]
IC50 (3T3 cells; read-out: MTT Assay IC50, 3T3): 0.1 to 5 µM | IC50 (MS751 cells; [2]): < 0.1 µM | IC50 (Z138 cells; [3]): < 0.1 µM

CCS(=O)(=O)c1ccc(-c2cc(-c3ccc(F)cc3)c3oc(CNC(=O)/C=C/c4ccc(N)nc4)cc3c2)cc1 [Compound 709, (E)-3-(6-aminopyridin-3-yl)-N-((5-(4-(ethylsulfonyl)phenyl)-7-(4-fluorophenyl)benzofuran-2-yl)methyl)acrylamide]
IC50 (3T3 cells; read-out: MTT Assay IC50, 3T3): > 10 µM | IC50 (MS751 cells; [2]): < 0.1 µM | IC50 (Z138 cells; [3]): < 0.1 µM

Nc1ccc(/C=C/C(=O)NCc2cc3cc(-c4ccc(C(=O)N5CCC(F)(F)CC5)cc4)cc(C(F)(F)F)c3o2)cn1 [Compound 566, (E)-3-(6-aminopyridin-3-yl)-N-((5-(4-(4,4-difluoropiperidine-1-carbonyl)phenyl)-7-(trifluoromethyl)benzofuran-2-yl)methyl)acrylamide]
IC50 (3T3 cells; read-out: MTT Assay IC50 3T3): > 10 µM | IC50 (MS751 cells; [1]): 0.1 to 5 µM | IC50 (Z138 cells; read-out: MTT Assay IC50 Z-138): 0.1 to 5 µM

Nc1ccc(/C=C/C(=O)NCc2cc3cc(-c4ncc(C(=O)N5CCNCC5)cn4)cc(Cl)c3o2)cn1 [Compound 649, (E)-3-(6-aminopyridin-3-yl)-N-((7-chloro-5-(5-(piperazine-1-carbonyl)pyrimidin-2-yl)benzofuran-2-yl)methyl)acrylamide]
IC50 (3T3 cells; read-out: MTT Assay IC50 3T3): > 10 µM | IC50 (MS751 cells; [1]): 0.1 to 5 µM | IC50 (Z138 cells; read-out: MTT Assay IC50 Z-138): 0.1 to 5 µM

Nc1ccc(/C=C/C(=O)NCc2cc3cc(-c4ccc(C(=O)N5CC[C@@H](F)C5)cc4)cc(C(F)(F)F)c3o2)cn1 [Compound 522, (R,E)-3-(6-aminopyridin-3-yl)-N-((5-(4-(3-fluoropyrrolidine-1-carbonyl)phenyl)-7-(trifluoromethyl)benzofuran-2-yl)methyl)acrylamide]
IC50 (3T3 cells; read-out: MTT Assay IC50 3T3): > 10 µM | IC50 (MS751 cells; [1]): 0.1 to 5 µM | IC50 (Z138 cells; read-out: MTT Assay IC50 Z-138): 0.1 to 5 µM

Nc1ccc(/C=C/C(=O)NCc2cc3c(Cl)cc(-c4ccc(C(=O)N5CCC(F)(F)CC5)cc4)cc3o2)cn1 [Compound 714]
IC50 (3T3 cells; read-out: MTT Assay IC50, 3T3): > 10 µM | IC50 (MS751 cells; [2]): 0.1 to 5 µM | IC50 (Z138 cells; [3]): 0.1 to 5 µM

CN1Cc2cc(-c3cc(Cl)c4oc(CNC(=O)/C=C/c5ccc(N)nc5)cc4c3)ccc2C1=O [Compound 513, (E)-3-(6-aminopyridin-3-yl)-N-((7-chloro-5-(2-methyl-1-oxoisoindolin-5-yl)benzofuran-2-yl)methyl)acrylamide]
IC50 (3T3 cells; read-out: MTT Assay IC50 3T3): > 10 µM | IC50 (MS751 cells; [1]): > 10 µM | IC50 (Z138 cells; read-out: MTT Assay IC50 Z-138): 0.1 to 5 µM

Cc1noc(C)c1C(O)c1ccc(-c2cc(Cl)c3oc(CNC(=O)/C=C/c4ccc(N)nc4)cc3c2)s1 (stereo not drawn) [Compound 578, (E)-3-(6-aminopyridin-3-yl)-N-((7-chloro-5-(5-((3,5-dimethylisoxazol-4-yl)(hydroxy)methyl)thiophen-2-yl)benzofuran-2-yl)methyl)acrylamide]
IC50 (3T3 cells; read-out: MTT Assay IC50 3T3): > 10 µM | IC50 (MS751 cells; [1]): 5 to 10 µM | IC50 (Z138 cells; read-out: MTT Assay IC50 Z-138): 5 to 10 µM

Nc1ccc(/C=C/C(=O)NCc2cc3cc(-c4ccc(CN5CCC(F)(F)CC5)cn4)cc(C(F)(F)F)c3o2)cn1 [Compound 675, (E)-3-(6-aminopyridin-3-yl)-N-((5-(5-((4,4-difluoropiperidin-1-yl)methyl)pyridin-2-yl)-7-(trifluoromethyl)benzofuran-2-yl)methyl)acrylamide]
IC50 (3T3 cells; read-out: MTT Assay IC50, 3T3): > 10 µM | IC50 (MS751 cells; [2]): > 10 µM | IC50 (Z138 cells; [3]): > 10 µM

Nc1ccc(/C=C/C(=O)NCc2cc3cc(-c4ccc(C(=S)N5CCC(F)(F)CC5)cc4F)cc(-c4ccc(F)cc4)c3o2)cn1 [Compound 758, (E)-3-(6-aminopyridin-3-yl)-N-((5-(4-(4,4-difluoropiperidine-1-carbonothioyl)-2-fluorophenyl)-7-(4-fluorophenyl)benzofuran-2-yl)methyl)acrylamide]
IC50 (3T3 cells; read-out: MTT Assay IC50, 3T3): > 10 µM | IC50 (MS751 cells; [2]): < 0.1 µM | IC50 (Z138 cells; [3]): < 0.1 µM

CC1(F)CCN(C(=O)c2ccc(-c3cc(C(F)(F)F)c4oc(CNC(=O)/C=C\c5ccc(N)nc5)cc4c3)nc2)C1 (single isomer, unassigned) [Compound 656, (Z)-3-(6-aminopyridin-3-yl)-N-((5-(5-(3-fluoro-3-methylpyrrolidine-1-carbonyl)pyridin-2-yl)-7-(trifluoromethyl)benzofuran-2-yl)methyl)acrylamide]
IC50 (3T3 cells; read-out: MTT Assay IC50 3T3): > 10 µM | IC50 (MS751 cells; [1]): 5 to 10 µM | IC50 (Z138 cells; read-out: MTT Assay IC50 Z-138): 0.1 to 5 µM

O=C(/C=C/c1cccnc1)NCc1cc2cc(-c3ccc(C(=O)N4CCC(F)(F)CC4)cn3)cc(-c3cc4ccccc4o3)c2o1 [Compound 721, (E)-N-((5′-(5-(4,4-difluoropiperidine-1-carbonyl)pyridin-2-yl)-[2,7′-bibenzofuran]-2′-yl)methyl)-3-(pyridin-3-yl)acrylamide]
IC50 (3T3 cells; read-out: MTT Assay IC50, 3T3): < 0.1 µM | IC50 (MS751 cells; [2]): < 0.1 µM | IC50 (Z138 cells; [3]): < 0.1 µM
